Measured values published in PubChem BioAssay (NCI).
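Compound exposure: 48 hours, 5 concentrations, 96-well plates. Here, GI50 denotes the concentration required for 50% inhibition of growth. The concentration for full growth arrest is given as TGI.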 Where a SMILES comes first, the peptide text is derived from it. The star is where a group is joined. Cbz = O=C(OCc1ccccc1)*; CH2Cl = ClC*

How the values were obtained:
Test in all cases: growth of human tumour cells (NCI), 48 h
[1] = test system: NCI-H23 lung
[2] = test system: RXF 393 renal
[3] = test system: COLO 205 colon
[4] = test system: MALME-3M melanoma
[5] = test system: KM12 colon
[6] = test system: SF-539 CNS
[7] = test system: A498 renal
[8] = test system: UO-31 renal
[9] = test system: SNB-75 CNS
[10] = test system: OVCAR-3 ovarian

Row | SMILES | GI50 [1] [µM] | TGI [1] [µM] | GI50 [2] [µM] | TGI [2] [µM] | GI50 [3] [µM] | TGI [3] [µM] | GI50 [4] [µM] | TGI [4] [µM] | GI50 [5] [µM] | TGI [5] [µM] | GI50 [6] [µM] | TGI [6] [µM] | GI50 [7] [µM] | TGI [7] [µM] | GI50 [8] [µM] | TGI [8] [µM] | GI50 [9] [µM] | TGI [9] [µM] | GI50 [10] [µM] | TGI [10] [µM]
1 | COc1cc(Cn2c(-c3ccccc3)c(Cl)c3c2-c2oncc2CC3)cc(OC)c1 | 6.15 | > 100 | 5.96 | 21.5 | 8.03 | 30.6 | 4.16 | 21.1 | 4.19 | > 100 | 8.19 | 70.9 | 2.96 | 90.3 | 4.16 | 27.7 | 5.03 | 75.3 | 4.63 | 22.9
2 | CC(C)CC(NC(=O)OCc1ccccc1)C(=O)NC(Cc1ccccc1)C(=O)CCl (stereo not drawn) (Cbz-Leu-Phe-CH2Cl; configuration not given here) | – | 4.9 | – | 3.3 | – | 8.44 | – | 4.16 | – | 35.3 | – | 10.2 | – | 71.2 | – | 18.2 | – | 9.32 | – | 8.26
3 | COc1ccc(/C=C2/N=C(c3ccccc3)N(c3c(C)n(C)n(-c4ccccc4)c3=O)C2=O)cc1OC | > 100 | > 100 | > 100 | > 100 | > 100 | > 100 | > 100 | > 100 | > 100 | > 100 | > 100 | > 100 | > 100 | > 100 | > 100 | > 100 | 86.4 | > 100 | > 100 | > 100
4 | O=C(CSc1nc2ccccc2nc1-c1ccccc1)Nc1ccc(F)cc1 | 69.7 | > 100 | 18.6 | 68.5 | 83.3 | > 100 | 17.1 | 54 | 44.8 | > 100 | 18.6 | 35.4 | 41.7 | > 100 | 45.7 | > 100 | 21.6 | 80.8 | 28 | > 100
5 | COc1cc(F)ccc1-c1ncnc(Nc2cccc(CS(C)(=N)=O)c2)n1 (stereo not given) | 0.679 | 7.14 | 0.239 | 0.534 | 0.4 | 2.18 | 2.73 | 9.66 | 0.561 | > 100 | 0.385 | 2.94 | 0.424 | 1.66 | 0.528 | > 100 | 0.434 | 3.46 | 0.45 | > 100
6 | CCn1c2ccccc2c2cc(NC(=O)Nc3ccc([N+](=O)[O-])cc3C)ccc21 | 3.9 | 30.6 | 1.36 | 6.27 | 2.82 | 10.3 | 2.28 | 13 | 2.69 | 16.8 | 1.83 | 4.41 | 11.5 | 64.1 | 2.68 | 17.1 | 3.05 | 17.6 | 3.39 | 19.4
